Assay results: patent US7723366B2 (Chugai Seiyaku Kabushiki Kaisha, priority 2001, dated 2010)
pIC50: −log10 of the molar value.

Legend:
[1] = target: T1, malonyl-CoA decarboxylase prepared from rat heart (Rattus norvegicus, UniProt Q920F5); experiment: In vitro MCD inhibitory assay (spectrophotometric, 96 well); format: biochemical; settings: read-out: IC50 of the MCD inhibitors
T1 construct: from tissue; host or cells: rat heart
T1 sequence (Q920F5 39-492): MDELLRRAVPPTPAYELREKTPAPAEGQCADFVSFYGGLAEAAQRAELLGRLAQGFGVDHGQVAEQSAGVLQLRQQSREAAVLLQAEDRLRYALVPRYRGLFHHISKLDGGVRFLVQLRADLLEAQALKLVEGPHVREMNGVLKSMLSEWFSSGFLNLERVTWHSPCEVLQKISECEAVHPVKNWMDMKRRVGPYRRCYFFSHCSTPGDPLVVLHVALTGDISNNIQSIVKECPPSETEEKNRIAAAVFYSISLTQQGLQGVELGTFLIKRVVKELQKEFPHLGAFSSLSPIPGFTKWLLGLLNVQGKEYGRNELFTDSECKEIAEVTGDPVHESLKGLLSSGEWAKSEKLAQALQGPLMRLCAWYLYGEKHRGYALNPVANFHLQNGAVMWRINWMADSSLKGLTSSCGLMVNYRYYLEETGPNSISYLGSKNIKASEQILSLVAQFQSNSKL
Procedure: The following reagents are added into a 96 well titer plate: Tris-HCl buffer, 20 μL; DTE, 10 μL; I -malate, 20 μL; NAD, 10 μL; NADH, 25 μL; water, 80 μL; malic dehydrogenase, 5 μL. The contents are mixed and incubated for 2 min followed by the addition of 5 μL of citrate synthase. […] The content is incubated and absorbence at […] is measured.
Active compounds are characterized by the concentration of the compound that caused 50% inhibition of MCD activity (IC50).

[2] = test system: human breast cancer cells and xenografts; settings: cited from earlier work
[3] = test system: isolated working hearts from male Sprague-Dawley rats; experiment: Glucose oxidation and fatty acid oxidation measurement in the perfused rat heart; settings: compared with known metabolism modulators ranolazine or trimetazidine
Procedure: Isolated working hearts from male Sprague-Dawley rats are subjected to a 60-minute aerobic perfusion period with a modified Krebs-Henseleit solution containing 5 mmol/L glucose; 100 μU/mL insulin; 3% BAS; and 1.2 mmol/L palmitate. Working hearts are used in these studies to approximate the metabolic demand of the heart seen in vivo. (Kantor et al., Circulation Research 86:580-588(2000)). The test compound is added 5 minutes into the perfusion period.
Glucose oxidation rates are determined by the quantitative collection of ^14CO2 produced by hearts perfused with buffer containing […]. Rates of fatty acid oxidation are determined by the quantitative collection of ^14CO2 produced by hearts perfused with buffer containing [^14C]palmitate (McNeill, J. H. in “Measurement of cardiovascular function”, chapter 2, CRC press, New York (1997)).
Active compounds are characterized by an increase in glucose oxidation as compared to control experiment (DMSO). The compounds that caused statistically significant increases in glucose oxidation are considered to be active. The preferred compounds cause statistically significant increases in glucose oxidation at 20 μM. Statistical significance was calculated using the Student's t test for paired or unpaired samples, as appropriate. The results with P<0.05 are considered to be statistically significant.

[4] = test system: muscle (M) isoform of CPT-I; settings: read-out: IC50 of malonyl-CoA inhibition of CPT-I; cited from earlier work

pIC50 [1] | SMILES | other results
5.58 | Sc1nc2ccc(NCc3ccccc3)cc2s1 [Table 2; entry 3, 6-[(phenylmethyl)amino]-1,3-benzothiazole-2-thiol] | 
6.58 | CCCN(C(=O)N(CC(C)C)CC(C)C)c1ccc2nc(S)sc2c1 [Table 5; entry 5] | 
7.19 | CCCCCCN(C(=O)Nc1cc(OC)cc(OC)c1)c1ccc2nc(S)sc2c1 [Table 3; entry 1, N′-[3,5-bis(methyloxy)phenyl]-N-hexyl-N-(2-mercapto-1,3-benzothiazol-6-yl)urea] | effects in metabolism shift compared with ranolazine or trimetazidine [3]: more profound effects in metabolism shift
7.27 | CCN(C(=O)Nc1ccccc1)c1ccc2nc(S)sc2c1 [Table 3; entry 5] | effects in metabolism shift compared with ranolazine or trimetazidine [3]: more profound effects in metabolism shift

The next lines start with the compound.

SMILES | pIC50 [1] | other results
CCCCCCNc1ccc2nc(S)sc2c1 [Table 2; entry 1, 6-(hexylamino)-1,3-benzothiazole-2-thiol] | 6.27 | 
CCCCCCCCCCCCCCOc1ccc(C(=O)O)o1 [TOFA, 5-(tetradecyloxy)-2-furoic acid] |  | malonyl-CoA level ([2]; breast carcinoma cells): 60 % of the control; antitumor activity [2]: does not show any antitumor activity
CCOC(=O)c1csc(S)n1 [Table 8; entry 1, Ethyl 2-Mercapto-1,3-thiazole-4-carboxylate] |  | melting point: 120 to 121 °C
CC(C)(COP(=O)(O)OP(=O)(O)OC[C@H]1O[C@@H](n2cnc3c(N)ncnc32)[C@H](O)[C@@H]1OP(=O)(O)O)[C@@H](O)C(=O)NCCC(=O)NCCSC(=O)CC(=O)O [Malonyl-CoA] |  | pIC50 [4]: 7.52
O=C(COc1ccccc1)N(Cc1ccccc1)c1ccc2nc(S)sc2c1 [Table 4; entry 1, N-(2-mercapto-1,3-benzothiazol-6-yl)-N-(phenylmethyl)-2-(phenyloxy)acetamide] | 5.99 | 
S=C(Nc1ccccc1)N(Cc1ccccc1)c1ccc2nc(S)sc2c1 [Table 3; entry 8] | 6.62 | 
O=S(=O)(c1ccc2sc(S)nc2c1)N1CCCCC1 [Table 7; entry 2] | 6.33 | 
